In data set [1] the test system is cerebellar granule neurons (CGN) culture. Kind of data set: NO-induced cell death on cultured neurons. The format is cell-based. The following applies: Neuron, cell death induced by nitric oxide, concentration-dependent, read-out: IC50 for blocking nitric oxide-induced neuron cell death. As to the method: Efficacy of caffeic acid phenethyl ester on treating neurodegenerative disorders as well as other disorders related to NO-induced cell death was assessed by testing its ability to block NO-induced cell death on cultured neurons according to a method described in Du, et al., Proc Natl Acad Sci, 2001, 98, 14669-14674.

The test system is the same in data set [2]. The experiment in a line: 6-hydroxydopamine-induced neurotoxicity on cultured neurons. The format is cell-based. As to conditions: 6-hydroxydopamine used to induce neurotoxicity.
The test system of data set [3] is TH-positive neurons in the substantia nigra pars compacta (SNpc). Kind of data set: MPTP mouse model, stereological count of TH-positive neurons in SNpc. The format is in vivo, mice. The procedure:
Caffeic acid phenethyl ester was evaluated for its efficacy in treating a neurodegenerative disorder in mice. Three groups of eight-week-old male C57B1/6 mice (Taconic Farms Inc., Germantown, N.Y.), 5-7 per group, were used. A group of mice were administered for 9 days with caffeic acid phenethyl ester (5 or 20 mg/kg/day in 10% alcohol by oral gavage, or 40 mg/kg/day in 10% alcohol by intraperitoneal injection). As a control, a second group of mice were administered with 10% alcohol free of caffeic acid phenethyl ester. These two groups of mice then received four intraperitoneal injections of 1-methyl-4-phenyl-1,2,3,6-tetrahydropyridine (“MPTP”)-HCl (20 mg/kg of free base) in saline at 2 hour intervals in a single day, as described in Liberatore, et al., Nat Med, 1999, 5, 1403-1409. Seven days after the last administration of MPTP, the mice were anesthetized by halothane inhalation. […] They were then incubated with rabbit polyclonal anti-tyrosine hydroxylase (anti-TH) antibody (1:2,500, CALBIOCHEM, La Jolla, Calif.), goat biotinylated-conjugated polyclonal anti-rabbit antibody (1:250; Vector Laboratories, Burlingame, Calif.), horseradish-peroxidase conjugated avidin/biotin complex (VECTASTAIN ABC Reagent, Vector Laboratories), and successively exposed to diaminobenzidine for TH-immunohistochemistry analysis and stereological quantification of TH-positive neurons. […]

Data set [4] relates to striatal levels of dopamine, DOPAC and HVA. The experiment in a line: MPTP mouse model, striatal levels of dopamine and metabolites by HPLC. The format is in vivo, mice. As to conditions: 40 mg/kg intraperitoneally, 48 hours after MPTP. As to the method: Caffeic acid phenethyl ester was evaluated for its efficacy in treating a neurodegenerative disorder in mice. Three groups of eight-week-old male C57B1/6 mice (Taconic Farms Inc., Germantown, N.Y.), 5-7 per group, were used. A group of mice were administered for 9 days with caffeic acid phenethyl ester (5 or 20 mg/kg/day in 10% alcohol by oral gavage, or 40 mg/kg/day in 10% alcohol by intraperitoneal injection). As a control, a second group of mice were administered with 10% alcohol free of caffeic acid phenethyl ester. These two groups of mice then received four intraperitoneal injections of 1-methyl-4-phenyl-1,2,3,6-tetrahydropyridine (“MPTP”)-HCl (20 mg/kg of free base) in saline at 2 hour intervals in a single day, as described in Liberatore, et al., Nat Med, 1999, 5, 1403-1409. The striatal levels of dopamine and its metabolites, dihydroxyphenylacetic acid (DOPAC) and homovanillic acid (HVA), were also determined by HPLC with electrochemical detector. See, e.g., Du, et al., Proc Natl Acad Sci, 2001, 98, 14669-14674.

The subject of data set [5] is isolated working rabbit heart. Kind of data set: Isolated working rabbit heart model of ischaemia. The format is in vivo. The following applies: 30 mg/kg intraperitoneal injection, p<0.05. As to the method: An isolated working rabbit heart model was use to define the cardioprotective effects (function, metabolic and ultrastructure) of caffeic acid phenethyl ester during ischaemia by the method described in Choong, et al., J Cardiovasc Surg (Torino), 1993 October, 34(5):423-433. More specifically, hearts (n=7 for each group) were arrested with and exposed to reinfusion (45 min) throughout the ischaemic period with a cold (4° C.) cardioplegic solution. […] The release of lactate dehydrogenase decreased during 40-minute ischaemic arrest (55.14+/-8.65 vs 19.33+/-7.4 IU/L perfusate for control and treatment, respectively; p<0.05). See […] et al., J Cardiovasc Pharmacol, 1999 October; 34(4):604-611.

One may read the IC50 as the midpoint of a concentration-inhibition curve. For the molecule `O=C(/C=C/c1ccc(O)c(O)c1)OCCc1ccccc1` [caffeic acid phenethyl ester], the IC50 in data set [1] was approximately 1000 nM. Further, in data set [2], the “neuroprotective effect against 6-hydroxydopamine-induced neurotoxicity” value was “neuroprotective effect”. Besides, the “number of TH-positive neurons in SNpc, as compared with saline-only mice” value in data set [3] (C57B1/6 mice, 5 or 20 mg/kg/day oral or 40 mg/kg/day i.p. for 9 days, then MPTP 4x20 mg/kg, 7 days after MPTP, MPTP control approximately 49%) is “up to 100%”. Also, the “effect of compound alone on number of TH-positive neurons” value in data set [3] (treatment alone for nine days, no MPTP) is listed as “did not significantly alter”. Also, the “MPTP-induced reduction of striatal HVA level” value in data set [4] (MPTP control decreased by 35%) worked out at 16%. Also, the “MPTP-induced reduction of striatal DOPAC level” value in data set [4] (MPTP control decreased by 46%) is reported as −2%. Besides, the “MPTP-induced reduction of striatal dopamine level” value in data set [4] (MPTP control decreased by 62%) came out at 3%. Besides, the “postischaemic recovery of cardiac output” value in data set [5] (n=7, control 71.48+/−9.66%) is reported as 90.83+/−3.2%. The “release of lactate dehydrogenase during 40-minute ischaemic arrest” value in data set [5] (control 55.14+/−8.65) is reported as 19.33+/−7.4 IU/L perfusate.
